Measured values as given in patent US9359281B2, “Enantiomers of 2-hydroxy derivatives of fatty acids” (UNIVERSITAT DE LES ILLES BALEARS, priority 2011, dated 2016).
Values joined by “and” are separate entries in the source; they are usually repeats but may differ in a detail not shown here. Equal values may be shown once.

How the values were obtained:
Jurkat cells = experiment: Cell growth inhibition, Jurkat; format: cell-based, human; parameters: key to Effect (anti-proliferation effect): +: inhibition of cell growth; −: absence of effect; settings: for IC50: sodium salt form
Description: (§1) At this respect, concentrations which inhibit growth of tumour cells (IC50) are lower for the enantiomer S ([−]) in all studied tumour lines (Table 5). […] In all of the cases, the molecules employed were in the form of sodium salt.

MDA-MB-231 cells = experiment: Cell growth inhibition, MDA-MB-231; format: cell-based, human; parameters: key to Effect (anti-proliferation effect): +: inhibition of cell growth; −: absence of effect; settings: for IC50: MDA-MB-231, sodium salt form
Description: as §1

[1] = Toxicity and side effects (symptoms) in treated tumour-bearing mice; format: in vivo; settings: for Toxicity: symptoms registered / Toxicity: Behaviour symptoms, percentage of animals / Toxicity: Diarrhoea, percentage of animals: 15 days
Description: This example recounts the study carried out on immuno-depressed mice infected with human glioma (SF767) cells and treated for 15 days (orally) with the indicated dose (Table 3).

HepG2 cells = experiment: Cell growth inhibition, HepG2; format: cell-based, human; parameters: key to Effect (anti-proliferation effect): +: inhibition of cell growth; −: absence of effect; settings: for IC50: HepG2, sodium salt form
Description: as §1

PC3 cells = experiment: Cell growth inhibition, PC3; format: cell-based, human; parameters: key to Effect (anti-proliferation effect): +: inhibition of cell growth; −: absence of effect; settings: for IC50: PC3, sodium salt form
Description: as §1

A375 cells = experiment: Cell growth inhibition, A375; format: cell-based, human; settings: A375, sodium salt form
Description: as §1

U937 cells = experiment: Cell growth inhibition, U937; format: cell-based, human; parameters: key to Effect (anti-proliferation effect): +: inhibition of cell growth; −: absence of effect; settings: for IC50: U937, sodium salt form
Description: as §1

U118 cells = experiment: Levels of SM in cell membranes, U118; format: cell-based, human; parameters: SM levels in the cell membrane (activation of enzyme EC 2.7.8.27): dose or concentration left out as unconfirmed; settings: for SM levels in the cell membrane (activation of enzyme EC 2.7.8.27): U118, 24 hours
U87 cells = experiment: Cell growth inhibition, U87; format: cell-based, human; parameters: key to Effect (anti-proliferation effect): +: inhibition of cell growth; −: absence of effect; settings: for IC50: U87, sodium salt form
Description: as §1

HT29 cells = experiment: Cell growth inhibition, HT29; format: cell-based, human; parameters: key to Effect (anti-proliferation effect): +: inhibition of cell growth; −: absence of effect; settings: for IC50: HT29, sodium salt form
Description: as §1

HeLa cells = experiment: Cell growth inhibition, HeLa; format: cell-based, human; parameters: key to Effect (anti-proliferation effect): +: inhibition of cell growth; −: absence of effect; settings: for IC50: sodium salt form
Description: as §1

[2] = Triglyceride and total cholesterol levels in SHR rats; format: in vivo; settings: 600 mg/kg every 12 h, orally; for CHOt levels after treatment: 15 days, basal 73 mg/dl; for plasmatic TG levels after treatment: 2 weeks, basal 108 mg/dl
Protocol: D. Effects on cholesterol and triglyceride levels: SHR rats were treated with 2OHOA racemic (+/−) and its optic isomers [−]2OHOA and [+]2OHOA (600 mg/kg every 12 h, 15 days, orally). […] Values of average±EEM seric levels of lipids expressed as mg/dl (ordinate axis; n=6) are shown.
(§2) What is more, we studied the effect of the isomers above on arterial pressure, body weight, and the level of cholesterol, triglycerides and glycemia (glucose in plasma) in SHR rats SHR (FIGS. 8B, 8C and 8D and 8E). […] Similarly, during 1 and 5 days of treatment, rats treated with the racemic loosed 11 gram of weight (approximately a 3% of their body weight), whereas animals of the group treated with enantiomer [−]2OHOA loosed 21 grams and animals of the group treated with enantiomer [+]2OHOA only loosed 7 grams of weight. On the other hand, a higher effect of enantiomer [+]2OHOA in the reduction of triglyceride (TG) and total cholesterol (CHOt) levels was observed (FIG. 8D) At this respect, plasmatic basal levels of TG in SHR rats are of 108 mg/dl and were reduced to 56 mg/dl after 2 weeks treatment […]. On the other hand, treatment with enantiomer [+]2OHOA inducted a reduction of plasmatic TG levels to 47 mg/dl, whereas enantiomer [−]2OHOA only produced a modest reduction to 81 mg/dl. In parallel, levels of CHOt were reduced from 73 mg/dl to 43 mg/dl (racemic), 36 mg/dl (enantiomer [+]2OHOA) and 59 mg/dl (enantiomer [−]2OHOA), respectively.

IMR90 cells = experiment: Cell growth inhibition, IMR90; format: cell-based, human; parameters: key to Effect (anti-proliferation effect): +: inhibition of cell growth; −: absence of effect; settings: for IC50: IMR90 non tumor fibroblast, sodium salt form
Description: as §1

SF767 cells = experiment: Cell growth inhibition, SF767; format: cell-based, human; parameters: key to Effect (anti-proliferation effect): +: inhibition of cell growth; −: absence of effect; settings: for IC50: SF767, sodium salt form
Description: as §1

[3] = Plasmatic glucose levels in SHR rats; format: in vivo; settings: 600 mg/kg, 12 h, 15 days, by mouth
Protocol: E. Effects on […] (plasmatic glucose levels): SHR rats were treated with vehicle (control), racemic 2OHOA and their optical isomers [−] 2OHOA and [+]2OHOA (600 mg/kg, 12 h, 15 days, by mouth). The racemic compound and the [−]
as §2

Body weight of SHR rats = format: in vivo; settings: 600 mg/kg·day, 5 days, orally
Protocol: C. Effect on body weight: SHR rats were treated with 2OHOA racemic (+/−) and its optic isomers [−]2OHOA and [+]2OHOA (600 mg/kg·day, 5 days, orally). […] Values of average±EEM body weight (abscises axis, n=6) are shown.
as §2

BXPC3 cells = experiment: Cell growth inhibition, BXPC3; format: cell-based, human; parameters: key to Effect (anti-proliferation effect): +: inhibition of cell growth; −: absence of effect; settings: for IC50: BXPC3, sodium salt form
Description: as §1

A549 cells = experiment: Cell growth inhibition, A549; format: cell-based, human; parameters: key to Effect (anti-proliferation effect): +: inhibition of cell growth; −: absence of effect
Description: as §1

CCCCCCCC/C=C\CCCCCCC(O)C(=O)O (racemic) [2OHOA, 2-hydroxyoleic acid]
IC50 (Jurkat cells; Homo sapiens): 62.9 µM | IC50 (MDA-MB-231 cells; Homo sapiens): 244 µM | Toxicity: symptoms registered ([1]; 50 mg/kg orally): No | Toxicity: symptoms registered ([1]; 75 mg/kg orally): No | Toxicity: symptoms registered ([1]; 100 mg/kg orally): No | Toxicity: symptoms registered ([1]; 150 mg/kg orally): No | Toxicity: Behaviour symptoms, percentage of animals ([1]; 200 mg/kg orally): Behaviour 16% | Toxicity: Diarrhoea, percentage of animals ([1]; 200 mg/kg orally): Diarrhoea 16% | Toxicity: Behaviour symptoms, percentage of animals ([1]; 400 mg/kg orally): Behaviour 16% | Toxicity: Diarrhoea, percentage of animals ([1]; 400 mg/kg orally): Diarrhoea 32% | Toxicity: Behaviour symptoms, percentage of animals ([1]; 600 mg/kg orally): Behaviour 50% | Toxicity: Diarrhoea, percentage of animals ([1]; 600 mg/kg orally): Diarrhoea 50% | side effects ([1]; 600 mg/kg, 15 days orally): important side effects | IC50 (HepG2 cells; Homo sapiens): 41.4 µM | IC50 (PC3 cells; Homo sapiens, PC-3): 138 µM | IC50 (A375 cells; Homo sapiens, A-375): 273 µM | IC50 (U937 cells; Homo sapiens, U-937): 183 µM | synthesis of SM (U118 cells; U118, 200 μM, 24 hours): significant increase | SM levels in the cell membrane (activation of enzyme EC 2.7.8.27) (U118 cells): significant increases in SM levels | IC50 (U87 cells; Homo sapiens, U-87 MG): 81.6 µM | IC50 (HT29 cells; Homo sapiens, HT-29): 225 µM | IC50 (HeLa cells; Homo sapiens): 127 µM | CHOt levels after treatment [2]: 43 mg/dL | IC50 (IMR90 cells; Homo sapiens, IMR-90): > 5 mM | IC50 (SF767 cells; Homo sapiens): 215 µM | plasma glucose levels (glycemia) [3]: significant reductions | loss of body weight (Body weight of SHR rats): 11 gram | loss of body weight as share of body weight (Body weight of SHR rats): ~3% | IC50 (BXPC3 cells; Homo sapiens, BXPC-3): 98.3 µM | IC50 (A549 cells; Homo sapiens, A549, A549, sodium salt form): 94.1 ± 8.8 µM

CCCCCCCC/C=C\CCCCCCC(O)C(=O)O (stereo not shown) [[+]2OHOA] [[+]HOOC—HOCH—(CH2)6—(CH═CH—CH2)1—(CH2)6—CH3]
IC50 (Jurkat cells): 97.2 µM | IC50 (MDA-MB-231 cells): 328 µM | Toxicity: symptoms registered ([1]; 50 mg/kg orally): No | Toxicity: symptoms registered ([1]; 75 mg/kg orally): No | Toxicity: symptoms registered ([1]; 100 mg/kg orally): No | Toxicity: symptoms registered ([1]; 150 mg/kg orally): No | Toxicity: Behaviour symptoms, percentage of animals ([1]; 200 mg/kg orally): Behaviour 16% | Toxicity: Diarrhoea, percentage of animals ([1]; 200 mg/kg orally): Diarrhoea 16% | Toxicity: Behaviour symptoms, percentage of animals ([1]; 400 mg/kg orally): Behaviour 32% | Toxicity: Diarrhoea, percentage of animals ([1]; 400 mg/kg orally): Diarrhoea 16% | Toxicity: Behaviour symptoms, percentage of animals ([1]; 600 mg/kg orally): Behaviour 50% | Toxicity: Diarrhoea, percentage of animals ([1]; 600 mg/kg orally): Diarrhoea 66% | IC50 (HepG2 cells): 76.7 µM | IC50 (PC3 cells): 233 µM | IC50 (A375 cells): 407 µM | IC50 (U937 cells): 214 µM | SM levels in the cell membrane (activation of enzyme EC 2.7.8.27) (U118 cells): decrease in the level of SM in membranes | IC50 (U87 cells): 148 µM | IC50 (HT29 cells): 342 µM | IC50 (HeLa cells): 206 µM | plasmatic TG levels after treatment ([2]; 600 mg/kg): 56 mg/dL and 47 mg/dL | CHOt levels after treatment ([2]; 600 mg/kg): 36 mg/dL | IC50 (IMR90 cells): > 5 mM | IC50 (SF767 cells): 304 µM | plasma glucose levels (glycemia) [3]: reduction without statistical significance | loss of body weight (Body weight of SHR rats; 600 mg/kg): 7 gram | IC50 (BXPC3 cells): 154 µM | IC50 (A549 cells; A549, sodium salt form): 133 µM | IC50 (A549 cells; A549, sodium salt form, listed as [+]2OH18:1): 133 ± 9.8 µM

CCCCCCCC/C=C\CCCCCCC(O)C(=O)O (stereo not shown) [[−]2OHOA] [[−] HOOC—HOCH—(CH2)6—(CH═CH—CH2)1—(CH2)6—CH3]
Effect (anti-proliferation effect) (Jurkat cells): + | IC50 (Jurkat cells): 35.7 µM | Effect (anti-proliferation effect) (MDA-MB-231 cells; MDA-MB-231): + | IC50 (MDA-MB-231 cells): 145 µM | Toxicity: symptoms registered ([1]; 50 mg/kg orally): no side effects and No | Toxicity: symptoms registered ([1]; 75 mg/kg orally): No | Toxicity: symptoms registered ([1]; 100 mg/kg orally): No | Toxicity: symptoms registered ([1]; 150 mg/kg orally): No | Toxicity: symptoms registered ([1]; 200 mg/kg orally): No | Toxicity: Behaviour symptoms, percentage of animals ([1]; 400 mg/kg orally): Behaviour 16% | Toxicity: Diarrhoea, percentage of animals ([1]; 400 mg/kg orally): Diarrhoea 16% | Toxicity: Behaviour symptoms, percentage of animals ([1]; 600 mg/kg orally): Behaviour 50% | Toxicity: Diarrhoea, percentage of animals ([1]; 600 mg/kg orally): Diarrhoea 32% | Effect (anti-proliferation effect) (HepG2 cells; HepG2): + | IC50 (HepG2 cells): 32.9 µM | Effect (anti-proliferation effect) (PC3 cells; PC3): + | IC50 (PC3 cells): 87 µM | IC50 (A375 cells): 163 µM | Effect (anti-proliferation effect) (U937 cells; U937): + | IC50 (U937 cells): 136 µM | % SM after treatment (U118 cells; U118, 200 μM [−]2OHOA): 28% | SM levels in the cell membrane (activation of enzyme EC 2.7.8.27) (U118 cells): even greater increases in SM levels | Effect (anti-proliferation effect) (U87 cells; U87): + | IC50 (U87 cells): 53.5 µM | Effect (anti-proliferation effect) (HT29 cells; HT29): + | IC50 (HT29 cells): 159 µM | Effect (anti-proliferation effect) (HeLa cells): + | IC50 (HeLa cells): 74.5 µM | plasmatic TG levels after treatment ([2]; 600 mg/kg): 81 mg/dL | CHOt levels after treatment ([2]; 600 mg/kg): 59 mg/dL | Effect (anti-proliferation effect) (IMR90 cells; IMR90): − | IC50 (IMR90 cells): > 5 mM | Effect (anti-proliferation effect) (SF767 cells; SF767): + | IC50 (SF767 cells): 102 µM | plasma glucose levels (glycemia) [3]: significant reductions | loss of body weight (Body weight of SHR rats; 600 mg/kg): 21 gram | Effect (anti-proliferation effect) (BXPC3 cells; BXPC3): + | IC50 (BXPC3 cells): 61.8 µM | Effect (anti-proliferation effect) (A549 cells; A549): + | IC50 (A549 cells; A549, sodium salt form): 52.6 µM | IC50 (A549 cells; A549, sodium salt form, listed as [−]2OH18:1): 52.6 ± 9.5 µM
